{"source": "patent US12559718B2", "about": "“Diagnostic methods for t cell therapy” (Kite Pharma, Inc., priority 2015, dated 2026)", "assay": "Phase 1/2 trial of anti-CD19 CAR+ T cells: adverse events and dose-limiting toxicity", "format": "in vivo, human", "conditions": "1 subject, onset at day 110 post anti-CD19 CAR+ T cell infusion", "description": "Subjects who signed informed consent and met study eligibility were enrolled into the study and underwent leukapheresis to obtain PBMCs for the production of anti-CD19 CAR+ T cells. […] Some subjects were then treated with interleukin-2 (Group 1 only), 3 hours after the anti-CD19 CAR+ T cell infusion. Retreatment of a second dose of anti-CD19 CAR+ T cells was allowed if there was a response of partial response (PR) or complete response (CR) after the first infusion and then subsequent disease progression.\nThree groups of subjects were enrolled. […] These subjects also received high dose interleukin-2 (IL-2) at 720,000 IU/kg (every 8 hours until 15 doses or toxicity precluded additional doses) after the anti-CD19 CAR+ T cell administration to stimulate their proliferation.\nGroup 3 includes 11 subjects, who have received a reduced conditioning regimen of cyclophosphamide at 300 mg/m^2 and fludarabine at 30 mg/m^2, both given for 3 concurrent days with no IL-2.\nOverall safety summaries include all 32 treated subjects."}
{"smiles": "Nc1nc(F)nc2c1ncn2[C@@H]1O[C@H](CO)[C@@H](O)[C@@H]1O", "note": "[fludarabine]", "values": [{"measurement": "Neurologic adverse event considered by the investigator related to fludarabine", "result": "grade 4 myelitis"}]}
